Where two headings read alike, the source gives them in different places. One block for each molecule: values may come before it.
What was measured:
[1] = biological target: T1, System L transporter SLC7A5 (Mus musculus, UniProt Q9Z127); test: Flow cytometry kynurenine uptake assay (450 nm fluorescence) in T cells; type: cell-based; details: for IC50: 37 °C
T1 construct: endogenous in cells
Excerpt: For cell surface staining, antibodies conjugated to FITC, PE, APC, Alexafluor 647 (A647), APC-efluor780 (APCe780), and PerCPCy5.5 were obtained from either BD Pharmingen, eBioscience or Biolegend. Fc receptors were blocked using Fc Block (BD Pharmingen). Antibody clones used were: CD4 (RM4-5), CD8a (53-6.7), TCRβ (H57-597), CD44 (IM7), CD45.1 (A20), CD45.2 (104) and CD98 (RC388). Cells were fixed using 1% paraformaldehyde. Standard intracellular cytokine staining protocols were followed for IFNγ (clone XMG1.2; Biolegend) staining. Data were acquired on a LSR Fortessa II with DIVA software or a FACSVerse flow cytometer with FACSuite software (BD Biosciences) and analysed using FlowJo software version 9.9.5 (TreeStar).
Start with at least 1 × 10^6 cells per condition, to obtain at least 200,000 events analysed by flow cytometry at the end of the protocol. […] If required, surface cell antibody staining should be performed prior to uptake assay protocol. This may be performed at room temperature or 4 °C, however test samples must be warmed to 37 °C, e.g. in water bath, prior to kynurenine uptake. (As with all multi-parameter flow cytometry, appropriate antibody staining controls must also be performed.) Samples can be fixed immediately after uptake assay by addition of 4% (vol/vol) paraformaldehyde (PFA; to a final concentration of 1%) for 30 min at room temperature.
For kynurenine uptake assay; pre-warm kynurenine (800 μM, in HBSS), BCH (40 mM, in HBSS) and lysine (20 mM, HBSS) and HBSS to 37 °C. After surface antibody staining of samples, resuspend cells in 200 μl warmed HBSS (1–5 × 10^6 cells in FACS tubes, or scale accordingly into plates). Keep cells in water bath at 37 °C. Add 100 μl of HBSS, or BCH or lysine to appropriate samples. Add 100 μl HBSS to no kynurenine controls (final volume 400 μl). Finally, add 100 μl kynurenine to appropriate samples. Stop uptake after 4 min by adding 125 μl 4% PFA for 30 min at room temperature, in the dark. The final concentrations for uptake assay are: 200 μM kynurenine; +/-10 mM BCH; +/-5 mM lysine. After fixation, wash cells twice in PBS/0.5% BSA and resuspend in PBS/0.5% BSA prior to acquisition on flow cytometer. The 405 nm laser and 450/50 BP filter are used for kynurenine fluorescence detection.
To monitor kynurenine uptake in live cells, acquire data on flow cytometer immediately following addition of kynurenine and plot fluorescence against time.

[2] = biological target: T1, System L transporter SLC7A5; test: Radiolabelled 3H-kynurenine uptake in T cells; type: cell-based
Protocol: To activate primary T cells, spleens and/or lymph nodes (LN) were removed, disaggregated and red blood cells lysed. Cells were stimulated with 1 μg/ml of the CD3 monoclonal antibody (2C11) and 2 μg/ml anti-CD28 (37.51; ebiosciences) to trigger the TCR. Naive CD4^+ T cells and 24 h TCR-activated CD4^+ T cells were purified using CD4 isolation kit (EasySep, STEMCELL Technologies). […] Proleukin, Novartis) for a further 3-5 days. To generate TH1s and TH17s, murine CD8^+ T cells were depleted from lymph node preparations using CD8 depletion kit (EasySep, STEMCELL Technologies). […] RnD Systems) and IL-2 (20 ng/ml) and for TH17s; cytokines IL-6 (50 ng/ml, Peprotech), IL-1β (10 ng/ml, Peprotech) and TGFβ (2 ng/ml, Peprotech). TH17s were cultured in IMDM (Gibco). All other cells were cultured in RPMI 1640 containing L-glutamine (Gibco). Culture media was supplemented with 10% FBS (Gibco), 50 μM β-mercaptoethanol (β-ME, Sigma) and penicillin/streptomycin (Gibco). Cells were incubated at 37 °C with 5% CO2 throughout. […] Cells were pelleted below the oil, the aqueous supernatant solution, followed by the silicon oil/dibutyl phthalate mixture was aspirated, and the cell pellet underneath resuspended in 200 μl NaOH (0.5 M) and β-radioactivity measured by liquid scintillation counting in a Beckman LS 6500 Multi-Purpose Scintillation Counter (Beckman Coulter). […] Where indicated, the sodium free buffer was prepared using TMACl as described in Baird et al.[35] Data are expressed as molecules radiotracer per cell per minute. […] All other chemicals were obtained from Sigma.

[3] = test system: AHR; test: Cyp1a1 mRNA induction in TH17cond CD4+ T cells (qPCR); type: cell-based, mouse
Protocol: To activate primary T cells, spleens and/or lymph nodes (LN) were removed, disaggregated and red blood cells lysed. Cells were stimulated with 1 μg/ml of the CD3 monoclonal antibody (2C11) and 2 μg/ml anti-CD28 (37.51; ebiosciences) to trigger the TCR. Naive CD4^+ T cells and 24 h TCR-activated CD4^+ T cells were purified using CD4 isolation kit (EasySep, STEMCELL Technologies). […] Proleukin, Novartis) for a further 3–5 days. To generate TH1s and TH17s, murine CD8^+ T cells were depleted from lymph node preparations using CD8 depletion kit (EasySep, STEMCELL Technologies). […] RnD Systems) and IL-2 (20 ng/ml) and for TH17s; cytokines IL-6 (50 ng/ml, Peprotech), IL-1β (10 ng/ml, Peprotech) and TGFβ (2 ng/ml, Peprotech). TH17s were cultured in IMDM (Gibco). All other cells were cultured in RPMI 1640 containing L-glutamine (Gibco). Culture media was supplemented with 10% FBS (Gibco), 50 μM β-mercaptoethanol (β-ME, Sigma) and penicillin/streptomycin (Gibco). Cells were incubated at 37 °C with 5% CO2 throughout. […] RNA was purified using the RNeasy RNA purification Mini Kit (Qiagen) (Genomic DNA was digested with RNase-free DNase (Qiagen) following manufacturer instructions) and reverse-transcribed using the iScript cDNA synthesis kit (BioRad). Quantitative PCR was performed in 96-well plate format using iQ SYBR Green-based detection (BioRad) on a BioRad iCycler.

[4] = test system: Cyp1A1 expression in U87 glioma cells; design: method as in PMID 21976023; details: read-out: EC50 to drive Cyp1A1 expression; cited from earlier work
[5] = test system: AHR; design: method as in PMID 29279331; details: COS-1 cells; read-out: EC50 for AHR activation; cited from earlier work
[6] = summary over CTL, TH1 and 24 h TCR-stimulated T cells

T1 sequence (Q9Z127 whole entry): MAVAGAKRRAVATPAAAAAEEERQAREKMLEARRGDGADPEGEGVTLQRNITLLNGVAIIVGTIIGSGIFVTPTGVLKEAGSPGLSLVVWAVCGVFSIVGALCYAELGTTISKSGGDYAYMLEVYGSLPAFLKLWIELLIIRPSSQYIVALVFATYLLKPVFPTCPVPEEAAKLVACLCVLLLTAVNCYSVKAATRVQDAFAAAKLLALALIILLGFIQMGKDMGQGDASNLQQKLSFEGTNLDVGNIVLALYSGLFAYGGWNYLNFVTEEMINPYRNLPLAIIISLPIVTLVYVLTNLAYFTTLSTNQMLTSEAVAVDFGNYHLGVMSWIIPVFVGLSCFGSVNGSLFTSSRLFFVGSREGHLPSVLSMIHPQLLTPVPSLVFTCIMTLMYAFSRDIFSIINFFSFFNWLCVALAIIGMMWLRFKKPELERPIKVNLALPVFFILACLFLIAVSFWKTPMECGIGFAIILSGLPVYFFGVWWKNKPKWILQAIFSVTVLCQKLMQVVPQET
T1 sequence (P10852 whole entry partner): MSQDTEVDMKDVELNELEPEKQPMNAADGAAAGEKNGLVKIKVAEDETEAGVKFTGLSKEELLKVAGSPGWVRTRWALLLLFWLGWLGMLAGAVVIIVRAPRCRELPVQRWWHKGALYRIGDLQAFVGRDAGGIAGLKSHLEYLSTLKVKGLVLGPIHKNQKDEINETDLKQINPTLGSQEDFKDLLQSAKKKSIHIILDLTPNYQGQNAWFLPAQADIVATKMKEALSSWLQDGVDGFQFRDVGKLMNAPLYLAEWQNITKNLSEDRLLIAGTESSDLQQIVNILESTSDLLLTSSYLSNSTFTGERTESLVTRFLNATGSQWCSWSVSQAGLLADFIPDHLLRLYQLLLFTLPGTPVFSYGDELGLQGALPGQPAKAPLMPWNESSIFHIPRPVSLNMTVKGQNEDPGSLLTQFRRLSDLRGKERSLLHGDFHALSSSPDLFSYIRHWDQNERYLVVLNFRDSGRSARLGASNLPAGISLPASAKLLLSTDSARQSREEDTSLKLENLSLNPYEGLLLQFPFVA

Compound: NC1(C(=O)O)CC2CCC1C2 (stereo not shown) [BCH, 2-amino-2-norbornanecarboxylic acid]
- Percentage of kynurenine uptake blocked by BCH, Kyn MFI ([1]; 24 h CD3/CD28 stimulated T cells (TCR), 450 nm fluorescence emission): 77.1 ± 14.7%
- effect on kynurenine uptake ([1]; CD3/CD28 activated wild-type T cells in co-culture, 5 mM lysine, BCH): BCH treatment did
- IC50 ([1]; CTL, 4 min): 492 ± 45 µM
- Percentage of kynurenine uptake blocked by BCH, Kyn MFI ([1]; CTL, 450 nm fluorescence emission): 78.3 ± 4.5%
- IC50 ([1]; D7 rLM CD8+ effector T cells from spleen, ex vivo, 4 min): 161 ± 34 µM
- effect on kynurenine transport ex vivo ([1]; D7 rLM-infected CD8+ T cells, BCH 10 mM, Leu 5 mM, Lys 5 mM): blocked
- effect on kynurenine transport (450 nm fluorescence) ([1]; TCR-stimulated CD8+ T cells or CTLs, 4 min, BCH 10 mM, Leu 5 mM, Lys 5 mM): prevented
- Percentage of kynurenine uptake blocked by BCH, Kyn MFI ([1]; TH1, 450 nm fluorescence emission): 81.0 ± 9.0%
- kynurenine transport blocked as measured by flow cytometry [1, 6]: 80%
- Percentage of kynurenine uptake blocked by BCH, 3H-Kyn ([2]; 24 h CD3/CD28 stimulated T cells (TCR), 4 min uptake): 79.1 ± 11.3%
- Percentage of kynurenine uptake blocked by BCH, 3H-Kyn ([2]; CTL, 4 min uptake): 92.5 ± 0.9%
- Percentage of kynurenine uptake blocked by BCH, 3H-Kyn ([2]; TH1, 4 min uptake): 90.2 ± 2.1%
- effect on 3H-kynurenine transport ([2]; TH1 cells and CTLs, BCH 5 mM): inhibited
- radiolabelled kynurenine uptake blocked [2, 6]: 80–90%
- effect on FICZ-induced Cyp1a1 mRNA ([3]; D3 TH17cond CD4+ T cells, FICZ 300 nM 2 h, BCH 25 mM): does not block FICZ mediated Cyp1a1 mRNA induction
- effect on kynurenine-induced Cyp1a1 mRNA ([3]; D3 TH17cond CD4+ T cells, kynurenine 100 μM 2 h, BCH 25 mM): impedes Cyp1a1 mRNA induction in response to kynurenine

- temperature dependence of kynurenine-mediated increase in MFI ([1]; CTLs, 4 min, 37 °C vs 4 °C): temperature sensitive
- Km ([1]; IL-2 maintained CTLs, flow cytometry assay (MFI), read-out: Km for the initial rate of kynurenine transport): 267 µM
- Km ([2]; CTLs, rounded value in Discussion, read-out: Km of kynurenine transport in CTLs): ~200 µM
- Km ([2]; IL-2 maintained CTLs, radiolabelled kynurenine transport assay, read-out: Km for the initial rate of kynurenine transport): 213 µM
- sodium dependence of uptake ([2]; TCR-activated CD4+ T cells, TH1s and CTLs, Na+ containing vs Na+-free buffer): sodium independent
- EC50 ([3]; D3 TH17cond CD4+ T cells, 2 h, read-out: EC50 to drive Cyp1A1 mRNA expression): 11.1 µM
Compound: Nc1ccccc1C(=O)CC(N)C(=O)O (stereo not shown) [kynurenine]
- EC50 [4]: 12.3 µM
- EC50 [5]: 13 µM
- Cyp1a1 mRNA induction, D3 versus D5 post activation ([3]; TH17cond CD4+ T cells, kynurenine 100 μM or FICZ 300 nM, 2 h): strikingly higher on day 3 post activation compared to day 5 cells
